Experimental data reported in the CheMixHub viscosity set.
± gives the uncertainty stated by the source.

Assay: xn = mol fraction of the nth substance listed

ClC(Cl)(Cl)Cl + c1ccccc1
Conditions | viscosity [mPa·s]
293.25 K, 101 kPa, x1 = 0.4 | 0.8063 ± 0.021
293.25 K, 101 kPa, x1 = 0.5 | 0.8381 ± 0.022
293.25 K, 101 kPa, x1 = 0.8 | 0.943 ± 0.025
293.35 K, 101 kPa, x1 = 0.2 | 0.7416 ± 0.02
298 K, 101 kPa, x1 = 0.1367 | 0.64 ± 0.018
298 K, 101 kPa, x1 = 0.1809 | 0.653 ± 0.018
298 K, 101 kPa, x1 = 0.2176 | 0.664 ± 0.018
298 K, 101 kPa, x1 = 0.2521 | 0.672 ± 0.018
298 K, 101 kPa, x1 = 0.2882 | 0.68 ± 0.018
298 K, 101 kPa, x1 = 0.3188 | 0.688 ± 0.018
298 K, 101 kPa, x1 = 0.3463 | 0.697 ± 0.018
298 K, 101 kPa, x2 = 0.189 | 0.8814 ± 0.012
298 K, 101 kPa, x2 = 0.2701 | 0.8626 ± 0.012
298 K, 101 kPa, x2 = 0.344 | 0.845 ± 0.011
298 K, 101 kPa, x2 = 0.4734 | 0.8084 ± 0.011
298 K, 101 kPa, x2 = 0.583 | 0.7751 ± 0.011
298 K, 101 kPa, x2 = 0.6318 | 0.7601 ± 0.01
298 K, 101 kPa, x2 = 0.6771 | 0.7455 ± 0.01
298 K, 101 kPa, x2 = 0.7194 | 0.7309 ± 0.01
298 K, 101 kPa, x2 = 0.7588 | 0.7176 ± 0.01
298 K, 101 kPa, x2 = 0.8303 | 0.6917 ± 0.0097
298 K, 101 kPa, x2 = 0.8935 | 0.667 ± 0.0094
298 K, 101 kPa, x2 = 0.9224 | 0.6567 ± 0.0092
298 K, 101 kPa, x2 = 0.9497 | 0.6424 ± 0.0091
298 K, 101.3 kPa, x1 = 0.1472 | 0.655 ± 0.007
298 K, 101.3 kPa, x1 = 0.2844 | 0.69 ± 0.007
298 K, 101.3 kPa, x1 = 0.4778 | 0.744 ± 0.007
298 K, 101.3 kPa, x1 = 0.6302 | 0.79 ± 0.008
298 K, 101.3 kPa, x1 = 0.8302 | 0.842 ± 0.008
298.15 K, 101 kPa, x1 = 0.0951 | 0.6268 ± 0.0054
298.15 K, 101 kPa, x1 = 0.169 | 0.6474 ± 0.0056
298.15 K, 101 kPa, x1 = 0.2348 | 0.6652 ± 0.017
298.15 K, 101 kPa, x1 = 0.2559 | 0.6726 ± 0.0058
298.15 K, 101 kPa, x1 = 0.3734 | 0.7073 ± 0.0061
298.15 K, 101 kPa, x1 = 0.4835 | 0.7352 ± 0.019
298.15 K, 101 kPa, x1 = 0.4917 | 0.7429 ± 0.0063
298.15 K, 101 kPa, x1 = 0.5951 | 0.7742 ± 0.0066
298.15 K, 101 kPa, x1 = 0.6135 | 0.7803 ± 0.0066
298.15 K, 101 kPa, x1 = 0.7561 | 0.8236 ± 0.007
298.15 K, 101 kPa, x1 = 0.7767 | 0.8291 ± 0.021
298.15 K, 101 kPa, x1 = 0.9264 | 0.8783 ± 0.0074
298.15 K, 101 kPa, x2 = 0.1022 | 0.8965 ± 0.0088
298.15 K, 101 kPa, x2 = 0.2 | 0.832 ± 0.0083
298.15 K, 101 kPa, x2 = 0.2062 | 0.8621 ± 0.0086
298.15 K, 101 kPa, x2 = 0.2386 | 0.808 ± 0.01
298.15 K, 101 kPa, x2 = 0.3055 | 0.8356 ± 0.0084
298.15 K, 101 kPa, x2 = 0.4 | 0.773 ± 0.0078
298.15 K, 101 kPa, x2 = 0.4022 | 0.8053 ± 0.0082
298.15 K, 101 kPa, x2 = 0.5051 | 0.7709 ± 0.008
298.15 K, 101 kPa, x2 = 0.5755 | 0.706 ± 0.009
298.15 K, 101 kPa, x2 = 0.6 | 0.714 ± 0.0072
298.15 K, 101 kPa, x2 = 0.604 | 0.7357 ± 0.0078
298.15 K, 101 kPa, x2 = 0.7006 | 0.7062 ± 0.0076
298.15 K, 101 kPa, x2 = 0.736 | 0.66 ± 0.009
298.15 K, 101 kPa, x2 = 0.8 | 0.658 ± 0.0067
298.15 K, 101 kPa, x2 = 0.8004 | 0.6785 ± 0.0075
298.15 K, 101 kPa, x2 = 0.8991 | 0.6415 ± 0.0073
298.15 K, 101.33 kPa, x1 = 0.125 | 0.6346 ± 0.017
298.15 K, 101.33 kPa, x1 = 0.2348 | 0.6652 ± 0.017
298.15 K, 101.33 kPa, x1 = 0.4835 | 0.7352 ± 0.019
298.15 K, 101.33 kPa, x1 = 0.5 | 0.7404 ± 0.019
298.15 K, 101.33 kPa, x1 = 0.65 | 0.7872 ± 0.021
298.15 K, 101.33 kPa, x1 = 0.7767 | 0.8291 ± 0.022
298.15 K, 101.33 kPa, x1 = 0.9 | 0.8691 ± 0.023
302.65 K, 101 kPa, x1 = 0.4 | 0.707 ± 0.019
302.65 K, 101 kPa, x1 = 0.5 | 0.7278 ± 0.019
303.15 K, 101 kPa, x2 = 0.1022 | 0.8407 ± 0.0084
303.15 K, 101 kPa, x2 = 0.2062 | 0.8084 ± 0.0082
303.15 K, 101 kPa, x2 = 0.3055 | 0.7825 ± 0.0081
303.15 K, 101 kPa, x2 = 0.4022 | 0.7545 ± 0.0079
303.15 K, 101 kPa, x2 = 0.5051 | 0.7209 ± 0.0077
303.15 K, 101 kPa, x2 = 0.604 | 0.688 ± 0.0076
303.15 K, 101 kPa, x2 = 0.7006 | 0.6616 ± 0.0074
303.15 K, 101 kPa, x2 = 0.8004 | 0.6348 ± 0.0073
303.15 K, 101 kPa, x2 = 0.8991 | 0.6047 ± 0.0071
303.25 K, 101 kPa, x1 = 0.8 | 0.8132 ± 0.022
303.35 K, 101 kPa, x1 = 0.6 | 0.7543 ± 0.02
303.65 K, 101 kPa, x1 = 0.2 | 0.6404 ± 0.017
308 K, 101 kPa, x2 = 0.189 | 0.7518 ± 0.01
308 K, 101 kPa, x2 = 0.2701 | 0.7355 ± 0.01
308 K, 101 kPa, x2 = 0.344 | 0.7202 ± 0.01
308 K, 101 kPa, x2 = 0.4734 | 0.6919 ± 0.0097
308 K, 101 kPa, x2 = 0.583 | 0.6652 ± 0.0094
308 K, 101 kPa, x2 = 0.6318 | 0.6524 ± 0.0092
308 K, 101 kPa, x2 = 0.6771 | 0.6391 ± 0.009
308 K, 101 kPa, x2 = 0.7194 | 0.627 ± 0.0089
308 K, 101 kPa, x2 = 0.7588 | 0.6159 ± 0.0088
308 K, 101 kPa, x2 = 0.8303 | 0.5939 ± 0.0085
308 K, 101 kPa, x2 = 0.8935 | 0.5753 ± 0.0083
308 K, 101 kPa, x2 = 0.9224 | 0.5661 ± 0.0082
308 K, 101 kPa, x2 = 0.9497 | 0.5573 ± 0.0081
308.15 K, 101 kPa, x2 = 0.1022 | 0.7881 ± 0.0081
308.15 K, 101 kPa, x2 = 0.2062 | 0.758 ± 0.0079
308.15 K, 101 kPa, x2 = 0.3055 | 0.732 ± 0.0078
308.15 K, 101 kPa, x2 = 0.4022 | 0.7062 ± 0.0077
308.15 K, 101 kPa, x2 = 0.5051 | 0.6748 ± 0.0075
308.15 K, 101 kPa, x2 = 0.604 | 0.6434 ± 0.0073
308.15 K, 101 kPa, x2 = 0.7006 | 0.62 ± 0.0072
308.15 K, 101 kPa, x2 = 0.8004 | 0.5929 ± 0.007
308.15 K, 101 kPa, x2 = 0.8991 | 0.5655 ± 0.0069
312.15 K, 101 kPa, x1 = 0.5 | 0.6431 ± 0.017
312.35 K, 101 kPa, x1 = 0.4 | 0.6172 ± 0.016
312.35 K, 101 kPa, x1 = 0.6 | 0.6695 ± 0.018
312.35 K, 101 kPa, x1 = 0.8 | 0.7173 ± 0.019
312.65 K, 101 kPa, x1 = 0.2 | 0.5692 ± 0.015
313.15 K, 101 kPa, x2 = 0.1022 | 0.7415 ± 0.0078
313.15 K, 101 kPa, x2 = 0.2062 | 0.7096 ± 0.0077
313.15 K, 101 kPa, x2 = 0.3055 | 0.6862 ± 0.0076
313.15 K, 101 kPa, x2 = 0.4022 | 0.659 ± 0.0074
313.15 K, 101 kPa, x2 = 0.5051 | 0.6313 ± 0.0073
313.15 K, 101 kPa, x2 = 0.604 | 0.6024 ± 0.0071
313.15 K, 101 kPa, x2 = 0.7006 | 0.58 ± 0.007
313.15 K, 101 kPa, x2 = 0.8004 | 0.5544 ± 0.0068
313.15 K, 101 kPa, x2 = 0.8991 | 0.5291 ± 0.0067
318 K, 101 kPa, x2 = 0.189 | 0.6483 ± 0.0092
318 K, 101 kPa, x2 = 0.2701 | 0.6346 ± 0.009
318 K, 101 kPa, x2 = 0.344 | 0.6217 ± 0.0088
318 K, 101 kPa, x2 = 0.4734 | 0.599 ± 0.0086
318 K, 101 kPa, x2 = 0.583 | 0.5775 ± 0.0083
318 K, 101 kPa, x2 = 0.6318 | 0.5665 ± 0.0082
318 K, 101 kPa, x2 = 0.6771 | 0.5566 ± 0.0081
318 K, 101 kPa, x2 = 0.7194 | 0.5469 ± 0.008
318 K, 101 kPa, x2 = 0.7588 | 0.5373 ± 0.0078
318 K, 101 kPa, x2 = 0.8303 | 0.5209 ± 0.0076
318 K, 101 kPa, x2 = 0.8935 | 0.5053 ± 0.0075
318 K, 101 kPa, x2 = 0.9224 | 0.4992 ± 0.0074
318 K, 101 kPa, x2 = 0.9497 | 0.492 ± 0.0073
318 K, 101.3 kPa, x1 = 0.1399 | 0.5125 ± 0.02
318 K, 101.3 kPa, x1 = 0.2838 | 0.5478 ± 0.021
318 K, 101.3 kPa, x1 = 0.4793 | 0.6011 ± 0.023
318 K, 101.3 kPa, x1 = 0.6289 | 0.6411 ± 0.024
318 K, 101.3 kPa, x1 = 0.8405 | 0.6993 ± 0.026
322.25 K, 101 kPa, x1 = 0.2 | 0.5085 ± 0.014
